Assay results taken from patent US20220033460A1, “IDENTIFICATION AND USE OF T CELL EPITOPES IN DESIGNING DIAGNOSTIC AND THERAPEUTIC APPROACHES FOR COVID-19” (priority 2020, published 2022).

System: TCRs from the BAL of COVID-19 patients
Format: cell-based, human

Question: Which “recognition of the peptide, effect of the mutation (NFAT activation)” value does the source give for “LLLLDRLNQLESKMSGKGQQQQ (SARS-CoV-2 epitope) [N221-242]” here?
Answer: unaffected
